From patent publication US4194009A, “Aryloxyphenylpropylamines for obtaining a psychotropic effect” (Eli Lilly and Company, priority 1976, dated 1980)

Assays:
mice [1] = experiment: reserpine hypothermia reversal test; format: in vivo; details: for reversal of reserpine hypothermia: in words
Experimental: (§1) The apomorphine hypothermia antagonism test is carried out as follows: mice are injected with a dose of apomorphine known to reduce body temperature approximately 4° C. The compound under test is injected 1/2 hour before the injection of the apomorphine and the temperatures measured 1/2 hour after injection. The degree of antagonism is expressed as a percent reduction (as compared with controls) of the temperature decrease produced by the injection of the apomorphine. The reserpine hypothermia reversal test is carried out as follows: groups of mice are injected with reserpine and 16.5 hours later are injected intraperitoneally with graded doses of the drug, a different dose level being given to each group of mice. Temperatures are measured at 1 hour after injection of the drug under test and again the effectiveness of the drug is expressed as a percentage decrease in the hypothermia induced by the injection of reserpine as compared with the control group. In the tables which follow, Table 4 gives the results in the apomorphine antagonism and reserpine reversal hypothermia tests for the secondary amines of this invention. In the table, the first column gives the substituent attached to the oxygen atom at the 3 position of the propylamine chain; columns 2 to 4 the percent antagonism against apomorphine hypothermia at dose levels of 0.3, 1 and 3 mg./kg. and columns 5-7 the percent reversal of reserpine hypothermia at the same dose levels.

mice [2] = experiment: apomorphine hypothermia antagonism test; format: in vivo; details: for antagonism of apomorphine hypothermia: in words
Experimental: as §1

isolated muscle strips [3] = experiment: antihistaminic effect in isolated muscle strips; format: cell-based
isolated muscle strips [4] = experiment: antiserotonin effect in isolated muscle strips; format: cell-based
isolated muscle strips [5] = experiment: anticholinergic effect in isolated muscle strips; format: cell-based
[6] = system: dopamine uptake by synaptosomes from rat brain; experiment: blockage of dopamine uptake by synaptosomes from rat brain; format: biochemical
Description: (§2) This blockade is shown both in vitro with radioactive labelled compounds to determine the amount of monoamine uptake by synaptosomes from rat brain, and in vivo by a variety of methods. Among the physiologically active monoamines whose uptake is blocked by the compounds of this invention are included serotonin, norepinephrine and dopamine (3,4-dihydroxyphenylethylamine). […] Tables 1 and 2 which follow set forth the results of some of the in vitro determinations of the blockage of monoamine uptake by the compounds of this invention. In the tables, column 1 gives the R substituent on the 3-phenylpropylamine and columns 2-4, the concentration in micrograms per ml. that blocks the uptake of a particular amine by 50 percent for the amines--norephinephrine, serotonin, and dopamine. At the head of each column is given the concentration of the particular monoamine used in the experiment.

[7] = system: norepinephrine uptake by synaptosomes from rat brain; experiment: blockage of norepinephrine uptake by synaptosomes from rat brain; format: biochemical
Description: as §2

[8] = system: serotonin uptake by synaptosomes from rat brain; experiment: blockage of serotonin uptake by synaptosomes from rat brain; format: biochemical; details: Table 1, serotonin 0.1 μM
Description: In the tables, column 1 gives the R substituent on the 3-phenylpropylamine and columns 2-4, the concentration in micrograms per ml. that blocks the uptake of a particular amine by 50 percent for the amines--norephinephrine, serotonin, and dopamine. At the head of each column is given the concentration of the particular monoamine used in the experiment.

rats = experiment: prevention of brain serotonin depletion caused by 4-chloroamphetamine; format: in vivo, rat; details: in words
Experimental: Following this injection, the protecting drug was injected at a dose of 15 mg./kg. of rat-weight intraperitoneally and determinations of brain serotonin levels were carried out 4 hours later.

anesthetized cats = experiment: electrocardiogram (QRS complex) in anesthetized cats; details: intravenous injection
pigeons = experiment: operant behavior, fixed-ratio, fixed interval schedule in pigeons; format: in vivo
[9] = prevention of brain monoamine depletion caused by α-ethyl-4-methyl-m-tyramine; format: in vivo; details: in words
[10] = Table 1, norepinephrine 0.48 μM
[11] = Table 5, mice, 3 mg./kg. intraperitoneally
[12] = Table 5, mice, 10 mg./kg. intraperitoneally

## CNCCCN1c2ccccc2CCc2ccccc21 [desmethylimipramine]
Mice [1]
  reversal of reserpine hypothermia: active
Mice [2]
  antagonism of apomorphine hypothermia: active
Isolated muscle strips [3]
  antihistaminic potency relative to N-methyl 3-(o-methoxyphenoxy)-3-phenylpropylamine: 150 times
Isolated muscle strips [4]
  antiserotonin potency relative to N-methyl 3-(o-methoxyphenoxy)-3-phenylpropylamine: three times more potent
Isolated muscle strips [5]
  anticholinergic potency relative to N-methyl 3-(o-methoxyphenoxy)-3-phenylpropylamine: 150 times

## CN(C)CCC(Oc1ccc(C(F)(F)F)cc1)c1ccccc1 (stereo not shown) [p-trifluoromethylphenyl, N,N-dimethyl 3-(p-trifluoromethylphenoxy)-3-phenylpropylamine]
Mice [1]; Mus musculus, ip, 1 h, Table 5, mice, 3 mg./kg. intraperitoneally, read-out: Percent Antagonism Reserpine Post-60 min.
  inhibition in vivo at 3 mg/kg: 20%
Mice [2]; Mus musculus, Table 4, mice, 1 mg./kg., read-out: Percent Antagonism Apomorphine Pre-30 min.
  inhibition in vivo at 1 mg/kg: 11%
Mice [2]; Mus musculus, Table 4, mice, 3 mg./kg., read-out: Percent Antagonism Apomorphine Pre-30 min.
  inhibition in vivo at 3 mg/kg: 25%
Mice [2]; Mus musculus, Table 5, mice, 3 mg./kg., read-out: Percent Antagonism Apomorphine Pre-30 min.
  inhibition in vivo at 3 mg/kg: 24%
[6]; Table 1, dopamine 0.2 μM
  Concentration in mcg./ml. that blocks 50% of amine uptake, Dopamine: > 100 µg/mL
[7]; [10]
  Concentration in mcg./ml. that blocks 50% of amine uptake, Norepinephrine: 70 µg/mL
[8]
  Concentration in mcg./ml. that blocks 50% of amine uptake, Serotonin: .16 µg/mL
rats
  prevention of serotonin depletion caused by 4-chloroamphetamine: gave similar results

## CN(C)CCC=C1c2ccccc2CCc2ccccc21 [amitriptyline, reference compound]
Mice [1]
  reversal of reserpine hypothermia: active
Mice [2]
  antagonism of apomorphine hypothermia: active
Anesthetized cats
  widening of the QRS complex of the electrocardiogram: causes a widening of the QRS complex

## NCCC(Oc1ccc(C(F)(F)F)cc1)c1ccccc1.O=C(O)C(=O)O (stereo not shown) [3-(p-trifluoromethylphenoxy)-3-phenylpropylamine oxalate]
rats
  prevention of serotonin depletion caused by 4-chloroamphetamine: gave similar results

## CNCCC(Oc1ccccc1OC)c1ccccc1 (stereo not shown) [o-anisyl, N-methyl 3-(o-methoxyphenoxy)-3-phenylpropylamine]
pigeons
  persistence of the effect on response rates: more than 24 hours

## CNCCC(Oc1ccc(C(F)(F)F)cc1)c1ccccc1 (stereo not shown) [p-trifluoromethylpenyl, N-methyl 3-(p-trifluoromethylphenoxy)-3-phenylpropylamine]
[9]
  depletion of norepinephrine by α-ethyl-4-methyl-m-tyramine: not the depletion of norepinephrine
  depletion of serotonin in the brain by α-ethyl-4-methyl-m-tyramine: prevented the depletion of serotonin in the brain
[6]; Table 2, dopamine 0.2 μM
  Concentration in mcg./ml. that blocks 50% of amine uptake, Dopamine: > 100 µg/mL
[7]; Table 2, norepinephrine 0.48 μM
  Concentration in mcg./ml. that blocks 50% of amine uptake, Norepinephrine: 20 µg/mL
rats
  prevention of serotonin depletion caused by 4-chloroamphetamine: prevented the depletion of serotonin

## CN(C)CCC(Oc1ccccc1)c1ccccc1 (stereo not shown) [phenyl]
Mice [1]; [11]
  Percent Antagonism Reserpine Post-60 min.: 20%
Mice [1]; [12]
  Percent Antagonism Reserpine Post-60 min.: 49%
Mice [2]; Table 5, mice, 3 mg./kg.
  Percent Antagonism Apomorphine Pre-30 min.: 3%
Mice [2]; Table 5, mice, 10 mg./kg.
  Percent Antagonism Apomorphine Pre-30 min.: 54%
[6]; Table 1, dopamine 0.2 μM
  Concentration in mcg./ml. that blocks 50% of amine uptake, Dopamine: .3 µg/mL
[7]; [10]
  Concentration in mcg./ml. that blocks 50% of amine uptake, Norepinephrine: 1 µg/mL
[8]
  Concentration in mcg./ml. that blocks 50% of amine uptake, Serotonin: .6 µg/mL

## COc1ccccc1OC(CCN)c1ccccc1 (stereo not shown) [3-(o-Methoxyphenoxy)-3-phenylpropylamine, 3-(o-methoxyphenoxy)-3-phenylpropylamine]
Anesthetized cats
  widening of the QRS complex of the electrocardiogram: affects the electrocardiogram similarly, but at far higher doses

## CN(C)CCC(Oc1cccc2ccccc12)c1ccccc1 (stereo not drawn) [α-naphthyl, N,N-dimethyl 3-(α-naphthyloxy)-3-phenylpropylamine]
Mice [1]; Table 5, mice, 1 mg./kg. intraperitoneally
  Percent Antagonism Reserpine Post-60 min.: 15%
Mice [1]; [11]
  Percent Antagonism Reserpine Post-60 min.: 4%
Mice [1]; [12]
  Percent Antagonism Reserpine Post-60 min.: 15%
Mice [2]; Table 5, mice, 1 mg./kg.
  Percent Antagonism Apomorphine Pre-30 min.: -17%
Mice [2]; Table 5, mice, 3 mg./kg.
  Percent Antagonism Apomorphine Pre-30 min.: -10%
Mice [2]; Table 5, mice, 10 mg./kg.
  Percent Antagonism Apomorphine Pre-30 min.: -7%
[6]; Table 1, dopamine 0.2 μM
  Concentration in mcg./ml. that blocks 50% of amine uptake, Dopamine: 2.5 µg/mL
[7]; [10]
  Concentration in mcg./ml. that blocks 50% of amine uptake, Norepinephrine: 3 µg/mL
[8]
  Concentration in mcg./ml. that blocks 50% of amine uptake, Serotonin: .03 µg/mL
